# Where a SMILES comes first, the peptide text is derived from it. Bridges are numbered along the chain shown (N, C = ends). [ ]: non-standard residue; d: D form. The star is where a group is joined. hPhe(3-Cl-4-CF3) = N[C@@H](CCc1ccc(C(F)(F)F)c(Cl)c1)C(=O)O; NPrPhe(4-CF3) = CCCN[C@@H](Cc1ccc(C(F)(F)F)cc1)C(=O)O; NMeGly(cPent) = CN[C@H](C(=O)O)C1CCCC1; Pro(4,4-Me2) = CC1(C)CN[C@H](C(=O)O)C1; Pro(4S-Me) = C[C@@H]1CN[C@H](C(=O)O)C1; NMeD = CN[C@@H](CC(=O)O)C(=O)O; NMeL = CN[C@@H](CC(C)C)C(=O)O; Morpholide = C1CN(*)CCO1; NMeA = CN[C@@H](C)C(=O)O; Ac5c = NC1(C(=O)O)CCCC1; Aze = O=C(O)[C@@H]1CCN1; Sar = CNCC(=O)O
# Columns and labels:
# [1] = molecular target: GDP-bound NRAS wild-type protein (Homo sapiens, UniProt P01111); assay: Binding to NRAS by surface plasmon resonance (SPR), Single Cycle Kinetics; conditions: KD ratio NRAS/KRAS, SPR
# [2] = molecular target: GDP-bound HRAS wild-type protein (Homo sapiens, UniProt P01112); assay: Binding to HRAS by surface plasmon resonance (SPR), Single Cycle Kinetics; conditions: KD ratio HRAS/KRAS, SPR
# Chain of GDP-bound HRAS wild-type protein (P01112 whole entry): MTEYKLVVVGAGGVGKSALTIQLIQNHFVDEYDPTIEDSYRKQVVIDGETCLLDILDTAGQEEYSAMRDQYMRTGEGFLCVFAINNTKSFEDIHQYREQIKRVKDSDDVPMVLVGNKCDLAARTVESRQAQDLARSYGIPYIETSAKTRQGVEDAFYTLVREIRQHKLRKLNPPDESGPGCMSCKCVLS
# Chain of GDP-bound NRAS wild-type protein (P01111 whole entry): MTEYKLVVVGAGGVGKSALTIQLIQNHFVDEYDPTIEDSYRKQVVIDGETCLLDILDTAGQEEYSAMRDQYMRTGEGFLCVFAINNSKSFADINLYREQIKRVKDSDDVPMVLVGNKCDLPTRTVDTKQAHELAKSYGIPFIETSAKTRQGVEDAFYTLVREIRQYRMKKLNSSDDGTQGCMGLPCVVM
smiles,measurement,setting,value
"CCCN1C(=O)CN(C)C(=O)[C@@H]2CCN2C(=O)[C@H]([C@@H](C)CC)NC(=O)[C@H](CC(C)C)N(C)C(=O)C[C@@H](C(=O)N2CCOCC2)N(C)C(=O)[C@H](C2CCCC2)N(C)C(=O)C2(CCCC2)NC(=O)[C@@H]2CC(C)(C)CN2C(=O)[C@H](CCc2ccc(C(F)(F)F)c(Cl)c2)NC(=O)CN(C)C(=O)[C@@H]1Cc1ccc(C(F)(F)F)cc1 [PP0452] ([NMeL]I[Aze][Sar][NPrPhe(4-CF3)][Sar][hPhe(3-Cl-4-CF3)][Pro(4,4-Me2)][Ac5c][NMeGly(cPent)][NMeD]-Morpholide; lactam N-11)",NRAS/KRAS (ratio of KD value with respect to GDP-bound NRAS wild-type protein to KD value with respect to KRAS),[1],B (a compound having 3 or more and less than 10 is denoted as B)
same,HRAS/KRAS (ratio of KD value with respect to GDP-bound HRAS wild-type protein to KD value with respect to KRAS),[2],B (a compound having 3 or more and less than 10 is denoted as B)
CCCN1C(=O)CN(C)C(=O)[C@@H]2CCN2C(=O)[C@H]([C@@H](C)CC)NC(=O)[C@H](CC(C)C)N(C)C(=O)C[C@@H](C(=O)N2CCOCC2)N(C)C(=O)[C@H](C2CCCC2)N(C)C(=O)C2(CCCC2)NC(=O)[C@@H]2C[C@H](C)CN2C(=O)[C@H](CCc2ccc(C(F)(F)F)c(Cl)c2)NC(=O)CN(C)C(=O)[C@@H]1Cc1ccc(C(F)(F)F)cc1 [PP0453] ([NMeL]I[Aze][Sar][NPrPhe(4-CF3)][Sar][hPhe(3-Cl-4-CF3)][Pro(4S-Me)][Ac5c][NMeGly(cPent)][NMeD]-Morpholide; lactam N-11),NRAS/KRAS (ratio of KD value with respect to GDP-bound NRAS wild-type protein to KD value with respect to KRAS),[1],B (a compound having 3 or more and less than 10 is denoted as B)
same,HRAS/KRAS (ratio of KD value with respect to GDP-bound HRAS wild-type protein to KD value with respect to KRAS),[2],C (A compound having a KD ratio of 0.1 or more and less than 3 is denoted as C)
"CCCN1C(=O)[C@@H]2CCN2C(=O)[C@H](C)N(C)C(=O)[C@H]([C@@H](C)CC)NC(=O)[C@H](CC(C)C)N(C)C(=O)C[C@@H](C(=O)N2CCOCC2)N(C)C(=O)[C@H](C2CCCC2)N(C)C(=O)C2(CCCC2)NC(=O)[C@@H]2CC(C)(C)CN2C(=O)[C@H](CCc2ccc(C(F)(F)F)c(Cl)c2)NC(=O)CN(C)C(=O)[C@@H]1Cc1ccc(C(F)(F)F)cc1 [PP0454] ([NMeL]I[NMeA][Aze][NPrPhe(4-CF3)][Sar][hPhe(3-Cl-4-CF3)][Pro(4,4-Me2)][Ac5c][NMeGly(cPent)][NMeD]-Morpholide; lactam N-11)",NRAS/KRAS (ratio of KD value with respect to GDP-bound NRAS wild-type protein to KD value with respect to KRAS),[1],C (A compound having a KD ratio of 0.1 or more and less than 3 is denoted as C)
same,HRAS/KRAS (ratio of KD value with respect to GDP-bound HRAS wild-type protein to KD value with respect to KRAS),[2],C (A compound having a KD ratio of 0.1 or more and less than 3 is denoted as C)
"CCCN1C(=O)[C@@H]2CCN2C(=O)CN(C)C(=O)[C@H]([C@@H](C)CC)NC(=O)[C@H](CC(C)C)N(C)C(=O)C[C@@H](C(=O)N2CCOCC2)N(C)C(=O)[C@H](C2CCCC2)N(C)C(=O)C2(CCCC2)NC(=O)[C@@H]2CC(C)(C)CN2C(=O)[C@H](CCc2ccc(C(F)(F)F)c(Cl)c2)NC(=O)CN(C)C(=O)[C@@H]1Cc1ccc(C(F)(F)F)cc1 [PP0456] ([NMeL]I[Sar][Aze][NPrPhe(4-CF3)][Sar][hPhe(3-Cl-4-CF3)][Pro(4,4-Me2)][Ac5c][NMeGly(cPent)][NMeD]-Morpholide; lactam N-11)",NRAS/KRAS (ratio of KD value with respect to GDP-bound NRAS wild-type protein to KD value with respect to KRAS),[1],C (A compound having a KD ratio of 0.1 or more and less than 3 is denoted as C)
same,HRAS/KRAS (ratio of KD value with respect to GDP-bound HRAS wild-type protein to KD value with respect to KRAS),[2],C (A compound having a KD ratio of 0.1 or more and less than 3 is denoted as C)
CCCN1C(=O)[C@@H]2CCN2C(=O)CN(C)C(=O)[C@H]([C@@H](C)CC)NC(=O)[C@H](CC(C)C)N(C)C(=O)C[C@@H](C(=O)N2CCOCC2)N(C)C(=O)[C@H](C2CCCC2)N(C)C(=O)C2(CCCC2)NC(=O)[C@@H]2C[C@H](C)CN2C(=O)[C@H](CCc2ccc(C(F)(F)F)c(Cl)c2)NC(=O)CN(C)C(=O)[C@@H]1Cc1ccc(C(F)(F)F)cc1 [PP0457] ([NMeL]I[Sar][Aze][NPrPhe(4-CF3)][Sar][hPhe(3-Cl-4-CF3)][Pro(4S-Me)][Ac5c][NMeGly(cPent)][NMeD]-Morpholide; lactam N-11),NRAS/KRAS (ratio of KD value with respect to GDP-bound NRAS wild-type protein to KD value with respect to KRAS),[1],C (A compound having a KD ratio of 0.1 or more and less than 3 is denoted as C)
same,HRAS/KRAS (ratio of KD value with respect to GDP-bound HRAS wild-type protein to KD value with respect to KRAS),[2],B (a compound having 3 or more and less than 10 is denoted as B)
CC[C@H](C)[C@@H]1NC(=O)[C@H](CC(C)C)N(C)C(=O)C[C@@H](C(=O)N2CCOCC2)N(C)C(=O)[C@H](C2CCCC2)N(C)C(=O)C2(CCCC2)NC(=O)[C@@H]2CCCN2C(=O)[C@H](CCc2ccc(C(F)(F)F)c(Cl)c2)NC(=O)CN(C)C(=O)[C@H](Cc2ccc(C)cc2)N2CC=CC[C@@H](C2=O)N(C)C(=O)CN(C)C1=O [PP0460],NRAS/KRAS (ratio of KD value with respect to GDP-bound NRAS wild-type protein to KD value with respect to KRAS),[1],C (A compound having a KD ratio of 0.1 or more and less than 3 is denoted as C)
same,HRAS/KRAS (ratio of KD value with respect to GDP-bound HRAS wild-type protein to KD value with respect to KRAS),[2],C (A compound having a KD ratio of 0.1 or more and less than 3 is denoted as C)
CC[C@H](C)[C@@H]1NC(=O)[C@H](CC(C)C)N(C)C(=O)C[C@@H](C(=O)N2CCOCC2)N(C)C(=O)[C@H](C2CCCC2)N(C)C(=O)C2(CCCC2)NC(=O)[C@@H]2CCCN2C(=O)[C@H](CCc2ccc(C(F)(F)F)c(Cl)c2)NC(=O)CN(C)C(=O)[C@H](Cc2ccc(C)cc2)N2CC/C=C\C[C@@H](C2=O)N(C)C(=O)CN(C)C1=O [PP0461],NRAS/KRAS (ratio of KD value with respect to GDP-bound NRAS wild-type protein to KD value with respect to KRAS),[1],A (a compound having 10 or more and less than 20 is denoted as A)
same,HRAS/KRAS (ratio of KD value with respect to GDP-bound HRAS wild-type protein to KD value with respect to KRAS),[2],A (a compound having 10 or more and less than 20 is denoted as A)
CC[C@H](C)[C@@H]1NC(=O)[C@H](CC(C)C)N(C)C(=O)C[C@@H](C(=O)N2CCOCC2)N(C)C(=O)[C@H](C2CCCC2)N(C)C(=O)C2(CCCC2)NC(=O)[C@@H]2CCCN2C(=O)[C@H](CCc2ccc(C(F)(F)F)c(Cl)c2)NC(=O)CN(C)C(=O)[C@H](Cc2ccc(C(F)(F)F)cc2)N2CC=CC[C@@H](C2=O)N(C)C(=O)CN(C)C1=O [PP0462],NRAS/KRAS (ratio of KD value with respect to GDP-bound NRAS wild-type protein to KD value with respect to KRAS),[1],C (A compound having a KD ratio of 0.1 or more and less than 3 is denoted as C)
same,HRAS/KRAS (ratio of KD value with respect to GDP-bound HRAS wild-type protein to KD value with respect to KRAS),[2],C (A compound having a KD ratio of 0.1 or more and less than 3 is denoted as C)
CC[C@H](C)[C@@H]1NC(=O)[C@H](CC(C)C)N(C)C(=O)C[C@@H](C(=O)N2CCOCC2)N(C)C(=O)[C@H](C2CCCC2)N(C)C(=O)C2(CCCC2)NC(=O)[C@@H]2CCCN2C(=O)[C@H](CCc2ccc(C(F)(F)F)c(Cl)c2)NC(=O)CN(C)C(=O)[C@H](Cc2ccc(C(F)(F)F)cc2)N2CC/C=C\C[C@@H](C2=O)N(C)C(=O)CN(C)C1=O [PP0463],NRAS/KRAS (ratio of KD value with respect to GDP-bound NRAS wild-type protein to KD value with respect to KRAS),[1],A (a compound having 10 or more and less than 20 is denoted as A)
same,HRAS/KRAS (ratio of KD value with respect to GDP-bound HRAS wild-type protein to KD value with respect to KRAS),[2],A (a compound having 10 or more and less than 20 is denoted as A)
CC[C@H](C)[C@@H]1NC(=O)[C@H](CC(C)C)N(C)C(=O)C[C@@H](C(=O)N(C)C)N(C)C(=O)[C@H](C2CCCC2)N(C)C(=O)C2(CCCC2)NC(=O)[C@@H]2CC(F)(F)CN2C(=O)[C@H](CCc2cc(F)c(C(F)(F)F)c(F)c2)NC(=O)CN(C)C(=O)[C@H](Cc2ccc(C(F)(F)F)cc2)N2CCCCC[C@@H](C2=O)N(C)C(=O)CN(C)C1=O [PP0465],NRAS/KRAS (ratio of KD value with respect to GDP-bound NRAS wild-type protein to KD value with respect to KRAS),[1],B (a compound having 3 or more and less than 10 is denoted as B)
same,HRAS/KRAS (ratio of KD value with respect to GDP-bound HRAS wild-type protein to KD value with respect to KRAS),[2],B (a compound having 3 or more and less than 10 is denoted as B)
CC[C@H](C)[C@@H]1NC(=O)[C@H](CC(C)C)N(C)C(=O)C[C@@H](C(=O)N(C)C)N(C)C(=O)[C@H](C2CCCC2)N(C)C(=O)C2(CCC2)NC(=O)[C@@H]2CC(F)(F)CN2C(=O)[C@H](CCc2cc(F)c(C(F)(F)F)c(F)c2)NC(=O)CN(C)C(=O)[C@H](Cc2ccc(C(F)(F)F)cc2)N2CCCCC[C@@H](C2=O)N(C)C(=O)CN(C)C1=O [PP0466],NRAS/KRAS (ratio of KD value with respect to GDP-bound NRAS wild-type protein to KD value with respect to KRAS),[1],B (a compound having 3 or more and less than 10 is denoted as B)
same,HRAS/KRAS (ratio of KD value with respect to GDP-bound HRAS wild-type protein to KD value with respect to KRAS),[2],B (a compound having 3 or more and less than 10 is denoted as B)
CCO[C@@H]1C[C@H]2C(=O)NC3(CCC3)C(=O)N(C)[C@@H](C3CCCC3)C(=O)N(C)[C@H](C(=O)N3CCOCC3)CC(=O)N(C)[C@@H](CC(C)C)C(=O)N[C@@H]([C@@H](C)CC)C(=O)N(C)CC(=O)N(C)[C@H]3CCCCCN(C3=O)[C@@H](Cc3ccc(C(F)(F)F)cc3)C(=O)N(C)CC(=O)N[C@@H](CCc3cc(F)c(C(F)(F)F)c(F)c3)C(=O)N2C1 [PP0467],NRAS/KRAS (ratio of KD value with respect to GDP-bound NRAS wild-type protein to KD value with respect to KRAS),[1],B (a compound having 3 or more and less than 10 is denoted as B)
same,HRAS/KRAS (ratio of KD value with respect to GDP-bound HRAS wild-type protein to KD value with respect to KRAS),[2],B (a compound having 3 or more and less than 10 is denoted as B)
CCO[C@@H]1C[C@H]2C(=O)NC3(CCCC3)C(=O)N(C)[C@@H](C3CCCC3)C(=O)N(C)[C@H](C(=O)N(C)C)CC(=O)N(C)[C@@H](CC(C)C)C(=O)N[C@@H]([C@@H](C)CC)C(=O)N(C)CC(=O)N(C)[C@H]3CCCCCN(C3=O)[C@@H](Cc3ccc(C(F)(F)F)cc3)C(=O)N(C)CC(=O)N[C@@H](CCc3cc(F)c(C(F)(F)F)c(F)c3)C(=O)N2C1 [PP0468],NRAS/KRAS (ratio of KD value with respect to GDP-bound NRAS wild-type protein to KD value with respect to KRAS),[1],B (a compound having 3 or more and less than 10 is denoted as B)
same,HRAS/KRAS (ratio of KD value with respect to GDP-bound HRAS wild-type protein to KD value with respect to KRAS),[2],B (a compound having 3 or more and less than 10 is denoted as B)

# Reference: patent publication US20250230193A1, “CYCLIC COMPOUND HAVING SELECTIVE KRAS INHIBITORY EFFECT ON HRAS AND NRAS” (CHUGAI SEIYAKU KABUSHIKI KAISHA, priority 2022, published 2025)
